Several values for one entry are separate records, joined by “and”; a condition that tells them apart may be missing. Equal values may be shown once.
Legend:
[1] = molecular target: whole cholera toxin (ctxAB5) (Vibrio cholerae serotype O1, UniProt P01556); assay type: binding
[2] = molecular target: cholera toxin secreted from Vibrio cholerae culture (Vibrio cholerae serotype O1, UniProt P01556)
Sequence of cholera toxin secreted from Vibrio cholerae culture (P01556 whole entry, looked up): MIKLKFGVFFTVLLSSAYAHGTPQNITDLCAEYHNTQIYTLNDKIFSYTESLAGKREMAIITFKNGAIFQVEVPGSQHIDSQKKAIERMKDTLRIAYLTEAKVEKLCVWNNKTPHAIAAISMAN

Sequence of whole cholera toxin (ctxAB5) (P01556 whole entry, looked up): as above

| Substance | coefficient of determination of linear relation between fluorescence intensity and whole cholera toxin concentration [1] | limit of detection (LOD) of cholera toxin determined from the dose-response curve [1] | visual limit of detection (LOD) of cholera toxin [1] | whole cholera toxin concentration at which fluorescence intensity was saturated [1] | fluorescence signal with Vibrio cholerae culture [2] |
| --- | --- | --- | --- | --- | --- |
| GM1 pentasaccharide | 0.9935 | 2 ng/mL and 23 pM | 5 ng/mL and 57.5 pM | ≥ 1 µg/mL | high fluorescence intensity |
| GM2 tetrasaccharide |  |  | 750 ng/mL |  | high fluorescence intensity |
| asialo GM1 tetrasaccharide |  |  | 1000 ng/mL |  |  |
